Source: patent publication US20240114940A1, “SACCHARIDE COMPOSITIONS HAVING SUCROSE-LIKE CHARACTERISTICS AND RELATED METHODS” (priority 2021, published 2024)

Key:
Assay type in all cases: physicochemical
[1] = Breakdown products by GCMS after Maillard reaction in the presence of Leucine; conditions: Maillard reaction in the presence of Leucine, 160° C., GCMS; for 2-Butanone concentration / 2-Propanone, 1-hydroxy- concentration / Diacetyl (2,3-Butanedione) concentration: Carbonyls/ketones; for Furan, 2-methyl- concentration / Furfural concentration: Furans; for Pyrazine, 2,5-diethyl- concentration / Pyrazine, 2,5-dimethyl- concentration / Pyrazine, 2-ethyl-5-methyl- concentration / Pyrazine, ethyl- concentration / Pyrazine, methyl- concentration: Pyrazines; for Isovaleraldehyde (Butanal, 3-methyl-) concentration: Strecker aldehydes
Method: (§1) Controls were prepared addition of 1 mL of pH 7 buffer to the amino acids. The samples were rapidly heated to 160° C. and held at this temperature for 10 min. Samples were rapidly cooled afterwards, and absorbance at 500 nm was measured for each reaction mixture. Volatiles were analysed using gas chromatography mass spectrometry (GCMS) analysis. An Agilent Technologies 5975B Inert XL MSD gas chromatography, single quadruple mass spectrometer was used for analysis of volatiles. Samples were added to separate GCMS headspace vials and weighed. 0.03 g of 0.01% 3-heptanone in water was added and the vial was sealed for GCMS solid phase micro extraction (SPME) analysis. Samples were analysed in a randomized order. Samples were incubated and agitated at 250 RPM, at 60° C. for 15 min prior to SPME analysis of volatiles. The SPME fibre (50/30 DVB/CAR/PDMS, 23 Ga) extracted for 10 min, then thermally desorbed at 250° C. for 5 min. A 30 m×0.25 mm×0.25 μm HP-5MS column was used (Phenomenex, UK). Oven temperature settings: 31° C.-5 min, 5° C./min to 150° C., 30° C./min to 240° C. Inlet settings: 250° C., pressure 10.4 psi, flow 11.2 mL/min, split ratio 7:1. MS operated in full scan mode from 40 to 400 m/z with a scan time of 0.2s. The peak area of the aroma compounds was compared to the peak of the internal standard 3-heptanone and corrected for the weight of the sample.
(§2) The concentration of the different classes of Maillard reaction breakdown products is presented in Tables 9B-E. The same data as Tables 9B-E is also presented in FIG. 27. Concentrations are in parts per billion of the difference non-enzymatic breakdown products for the different compositions at 160° C. analysed by GCMS.

[2] = Breakdown products by GCMS without an amino acid present; conditions: pH 7, 160° C., 10 min
Method: as §1, §2

[3] = Breakdown products by GCMS after Maillard reaction in the presence of Histidine; conditions: 160° C.; for 2-Butanone concentration / 2-Propanone, 1-hydroxy- concentration / Diacetyl (2,3-Butanedione) concentration: Carbonyls/ketones; for Furan, 2-methyl- concentration / Furfural concentration: Furans; for Pyrazine, 2,5-diethyl- concentration / Pyrazine, 2,5-dimethyl- concentration / Pyrazine, 2-ethyl-5-methyl- concentration / Pyrazine, ethyl- concentration / Pyrazine, methyl- concentration: Pyrazines
Method: as §1, §2

[4] = Breakdown products by GCMS after Maillard reaction in the presence of Tryptophan; conditions: with Tryptophan, pH 7, 160° C., 10 min
Method: as §1, §2

Compound | 2-Butanone concentration [1] [ppb] | 2-Propanone, 1-hydroxy- concentration [1] [ppb] | Diacetyl (2,3-Butanedione) concentration [1] [ppb] | Furan, 2-methyl- concentration [1] [ppb] | Furfural concentration [1] [ppb] | Pyrazine, 2,5-diethyl- concentration [1] [ppb] | Pyrazine, 2,5-dimethyl- concentration [1] [ppb] | Pyrazine, 2-ethyl-5-methyl- concentration [1] [ppb] | Pyrazine, ethyl- concentration [1] [ppb] | Pyrazine, methyl- concentration [1] [ppb] | Isovaleraldehyde (Butanal, 3-methyl-) concentration [1] [ppb] | 2-Butanone concentration [3] [ppb] | 2-Propanone, 1-hydroxy- concentration [3] [ppb] | Diacetyl (2,3-Butanedione) concentration [3] [ppb] | Furan, 2-methyl- concentration [3] [ppb] | Furfural concentration [3] [ppb] | Pyrazine, 2,5-diethyl- concentration [3] [ppb] | Pyrazine, 2,5-dimethyl- concentration [3] [ppb] | Pyrazine, 2-ethyl-5-methyl- concentration [3] [ppb] | Pyrazine, ethyl- concentration [3] [ppb] | also measured
CC(C)C[C@H](N)C(=O)O [Leucine] | 2.04 | 0.23 | 3.75 | 0 | 0.03 | 0 | 0 | 1 | 0 | 0 | 1.56 | – | – | – | – | – | – | – | – | – | –
O=C[C@H](O)[C@@H](O)[C@H](O)CO [Xylose] | 212.85 | 647.73 | 458.75 | 170.12 | 118.44 | 84.11 | 2510.13 | 1146.75 | 59.9 | 496.33 | 15873.58 | 53.5 | 196.75 | 32.61 | 28.4 | 15.26 | 17.88 | 587.06 | 288.64 | 4.48 | Concentration of 2-Butanone [2]: 75.3 ppb; Concentration of 2-Propanone, 1-hydroxy- [2]: 196.36 ppb; Concentration of 5-methyl furfural [2]: 27.19 ppb; Concentration of Diacetyl (2,3-Butanedione) [2]: 267.18 ppb; Concentration of Furan, 2-methyl- [2]: 7.83 ppb; Concentration of Furfural [2]: 65.56 ppb; Pyrazine, methyl- concentration [3]: 5.22 ppb; Concentration of 2-Butanone [4]: 70.81 ppb; Concentration of 2-Propanone, 1-hydroxy- [4]: 227.11 ppb; Concentration of Diacetyl (2,3-Butanedione) [4]: 55.57 ppb; Concentration of Furan, 2-methyl- [4]: 52.32 ppb; Concentration of Furan, 2-pentyl- [4]: 6.28 ppb; Concentration of Furfural [4]: 0.15 ppb; Concentration of Indole [4]: 53.49 ppb; Concentration of Pyrazine, 2,5-diethyl- [4]: 25 ppb; Concentration of Pyrazine, 2,5-dimethyl- [4]: 751.39 ppb; Concentration of Pyrazine, 2-ethyl-5-methyl- [4]: 394.72 ppb; Concentration of Pyrazine, ethyl- [4]: 13.61 ppb; Concentration of Pyrazine, methyl- [4]: 59.72 ppb
N[C@@H](Cc1c[nH]cn1)C(=O)O [Histidine] | – | – | – | – | – | – | – | – | – | – | – | 1.25 | 0 | 2.2 | 0 | 0.02 | 0 | 0 | 0.38 | 0 | Pyrazine, methyl- concentration [3]: 0 ppb
N[C@@H](Cc1c[nH]c2ccccc12)C(=O)O [Tryptophan] | – | – | – | – | – | – | – | – | – | – | – | – | – | – | – | – | – | – | – | – | Concentration of 2-Butanone [4]: 0.56 ppb; Concentration of 2-Propanone, 1-hydroxy- [4]: 0.05 ppb; Concentration of Diacetyl (2,3-Butanedione) [4]: 2.08 ppb; Concentration of Furan, 2-methyl- [4]: 0 ppb; Concentration of Furan, 2-pentyl- [4]: 0.03 ppb; Concentration of Furfural [4]: 0.02 ppb; Concentration of Indole [4]: 8.55 ppb; Concentration of Pyrazine, 2,5-diethyl- [4]: 0 ppb; Concentration of Pyrazine, 2,5-dimethyl- [4]: 0 ppb; Concentration of Pyrazine, 2-ethyl-5-methyl- [4]: 0.26 ppb; Concentration of Pyrazine, ethyl- [4]: 0 ppb; Concentration of Pyrazine, methyl- [4]: 0 ppb
